Data as given in paper PMC9151520 (Archives of Toxicology, 2022).
Values joined by “and” are separate entries in the source; they are usually repeats but may differ in a detail not shown here. Equal values may be shown once. Read-outs that look alike come from different tables or passages of the source.

Columns and labels:
[1] = system: p53 signaling (p53RE-bla HCT-116 cells); assay: cells; type: cell-based
[2] = system: p53 signaling (p53RE-bla HCT-116 cells); assay: cells; type: cell-based; conditions: for Emax: HCT-116, read-out: efficacy
[3] = system: p53 signaling (p53RE-bla HCT-116 cells); assay: cells; type: cell-based; conditions: Homo sapiens; for EC50: HCT-116; for Emax: HCT-116, read-out: efficacy
[4] = system: p53 signaling (p53RE-bla HCT-116 cells)
[5] = system: p53 signaling (p53RE-bla HCT-116 cells); assay: cells; conditions: Homo sapiens
[6] = system: p53 signaling (p53RE-bla HCT-116 cells); assay: cells; conditions: Homo sapiens; remark: listed apart in the source
[7] = system: p53 signaling (p53RE-bla HCT-116 cells); remark: listed apart in the source
[8] = HCT-116, read-out: p53 activation EC50, HLM
[9] = Homo sapiens, HCT-116, read-out: p53 activation EC50, No MS
[10] = read-out: p53 activation EC50, No MS
[11] = HCT-116, read-out: p53 activation EC50, RLM
[12] = HCT-116, read-out: p53 activation efficacy
[13] = read-out: p53 activation EC50, RLM
[14] = HCT-116, read-out: p53 activation efficacy, primary screening

CNP(=O)(OC)Oc1ccc(C(C)(C)C)cc1Cl (stereo not drawn) [Crufomate]
p53 activation EC50, No MS [1]: inactive | p53 activation Efficacy, No MS [1]: inactive | EC50 ([2]; Homo sapiens, HCT-116, 0.5 h): 0.33 µM | EC50 [3]: 3.29 µM | p53 activation EC50, HLM [4]: inactive | Viability EC50, HLM (p53RE-bla HCT-116 cells): inactive | Viability EC50, No MS (p53RE-bla HCT-116 cells): inactive | Viability EC50, RLM (p53RE-bla HCT-116 cells): inactive | Viability Efficacy, HLM (p53RE-bla HCT-116 cells): inactive | Viability Efficacy, No MS (p53RE-bla HCT-116 cells): inactive | Viability Efficacy, RLM (p53RE-bla HCT-116 cells): inactive | EC50 ([5]; HCT-116): 4.36 µM | Emax ([5]; HCT-116, read-out: efficacy): 66.6% | EC50 [6, 8]: 4.17 µM

Oc1c(Cl)cc(Cl)c(Cl)c1Cl [2,3,4,6-Tetrachlorophenol]
p53 activation Efficacy, No MS [1]: 39.2893% | EC50 [1, 9]: 17.7 µM | Emax ([1]; Homo sapiens, HCT-116, read-out: p53 activation Efficacy, No MS): 37.3% | EC50 [1, 10]: 34.6 µM | p53 activation EC50, RLM [7]: inactive | p53 activation EC50, HLM [4]: inactive | Viability EC50, HLM (p53RE-bla HCT-116 cells): inactive | Viability EC50, No MS (p53RE-bla HCT-116 cells): inactive | Viability EC50, RLM (p53RE-bla HCT-116 cells): inactive | Viability Efficacy, HLM (p53RE-bla HCT-116 cells): inactive | Viability Efficacy, No MS (p53RE-bla HCT-116 cells): inactive | Viability Efficacy, RLM (p53RE-bla HCT-116 cells): inactive | EC50 [5, 11]: 44.8 µM | EC50 [6, 8]: 34.9 µM

Nc1nc(Cl)nc2c1ncn2[C@H]1C[C@H](O)[C@@H](CO)O1 [Cladribine]
p53 activation efficacy [1]: 91.229 | Emax ([1]; Homo sapiens, HCT-116, read-out: p53 activation efficacy): 81% | EC50 ([1]; read-out: p53 activation EC50): 0.665 µM | p53 activation efficacy [7]: 33.0267 | p53 activation EC50 [4]: inactive | Viability EC50 (p53RE-bla HCT-116 cells): inactive | Viability efficacy (p53RE-bla HCT-116 cells): inactive | Emax [5, 12]: 45.7% | Emax [6, 12]: 47.1%

Nc1nc(N)c2nc(-c3ccccc3)c(N)nc2n1 [Triamterene]
EC50 [1, 9]: 28.7 µM | EC50 [1, 10]: 27.6 µM | EC50 [7, 13]: 42.4 µM | p53 activation EC50, HLM [4]: inactive | Viability EC50, HLM (p53RE-bla HCT-116 cells): inactive | Viability EC50, No MS (p53RE-bla HCT-116 cells): inactive | Viability EC50, RLM (p53RE-bla HCT-116 cells): inactive | Viability Efficacy, HLM (p53RE-bla HCT-116 cells): inactive | Viability Efficacy, No MS (p53RE-bla HCT-116 cells): inactive | Viability Efficacy, RLM (p53RE-bla HCT-116 cells): inactive | EC50 [5, 11]: 30.5 µM | EC50 [6, 8]: 16.4 µM

CCOP(=O)(OCC)Oc1cc(C)nc(C(C)C)n1 [Diazoxon]
p53 activation EC50 [1]: inactive | p53 activation efficacy [1]: inactive | EC50 ([2]; Homo sapiens, HCT-116, 0.5 h): 3.83 µM | Emax ([2]; Homo sapiens): 58.5% | EC50 [3]: 13.9 µM | Emax [3]: 61.3% | p53 activation EC50 [4]: inactive | Viability EC50 (p53RE-bla HCT-116 cells): inactive | Viability efficacy (p53RE-bla HCT-116 cells): inactive | EC50 ([5]; HCT-116): 6.57 µM | Emax ([5]; HCT-116, read-out: efficacy): 43.6% | EC50 ([6]; HCT-116, read-out: p53 activation EC50): 20.2 µM | Emax [6, 12]: 39.6%

CNC(=O)Oc1ccccc1C(C)C [Isoprocarb]
p53 activation EC50, No MS [1]: inactive | p53 activation Efficacy, No MS [1]: inactive | EC50 [7, 13]: 12.5 µM | p53 activation EC50, HLM [4]: inactive | Viability EC50, HLM (p53RE-bla HCT-116 cells): inactive | Viability EC50, No MS (p53RE-bla HCT-116 cells): inactive | Viability EC50, RLM (p53RE-bla HCT-116 cells): inactive | Viability Efficacy, HLM (p53RE-bla HCT-116 cells): inactive | Viability Efficacy, No MS (p53RE-bla HCT-116 cells): inactive | Viability Efficacy, RLM (p53RE-bla HCT-116 cells): inactive | EC50 [5, 11]: 12 µM | EC50 [6, 8]: 8.87 µM

CCOP(=S)(OCC)SCn1nnc2ccccc2c1=O [Azinphos-ethyl]
p53 activation EC50, No MS [1]: inactive | p53 activation Efficacy, No MS [1]: inactive | EC50 ([2]; Homo sapiens, HCT-116, 0.5 h): 22.8 µM | EC50 [3]: 2.16 µM | p53 activation EC50, HLM [4]: inactive | Viability EC50, HLM (p53RE-bla HCT-116 cells): inactive | Viability EC50, No MS (p53RE-bla HCT-116 cells): inactive | Viability EC50, RLM (p53RE-bla HCT-116 cells): inactive | Viability Efficacy, HLM (p53RE-bla HCT-116 cells): inactive | Viability Efficacy, No MS (p53RE-bla HCT-116 cells): inactive | Viability Efficacy, RLM (p53RE-bla HCT-116 cells): inactive | EC50 ([5]; HCT-116): 2.17 µM | Emax ([5]; HCT-116, read-out: efficacy): 47.5% | EC50 [6, 8]: 1.98 µM

COP(=S)(OC)SCN1C(=O)c2ccccc2C1=O [Phosmet]
p53 activation EC50, No MS [1]: inactive | p53 activation Efficacy, No MS [1]: inactive | EC50 ([2]; Homo sapiens, HCT-116, 0.5 h): 18.7 µM | Emax ([2]; Homo sapiens): 48.2% | EC50 [3]: 8.04 µM | Emax [3]: 49% | p53 activation EC50, HLM [4]: inactive | Viability EC50, HLM (p53RE-bla HCT-116 cells): inactive | Viability EC50, No MS (p53RE-bla HCT-116 cells): inactive | Viability EC50, RLM (p53RE-bla HCT-116 cells): inactive | Viability Efficacy, HLM (p53RE-bla HCT-116 cells): inactive | Viability Efficacy, No MS (p53RE-bla HCT-116 cells): inactive | Viability Efficacy, RLM (p53RE-bla HCT-116 cells): inactive | EC50 ([5]; HCT-116): 11.6 µM | Emax ([5]; HCT-116, read-out: efficacy): 52.6% | EC50 [6, 8]: 7.57 µM

CCOP(=S)(OCC)OP(=S)(OCC)OCC [Sulfotepp]
p53 activation EC50, No MS [1]: inactive | p53 activation Efficacy, No MS [1]: inactive | EC50 [2]: Inactive | EC50 [3]: 16.6 µM | Emax [3]: 42.1% | p53 activation EC50, HLM [4]: inactive | Viability EC50, HLM (p53RE-bla HCT-116 cells): inactive | Viability EC50, No MS (p53RE-bla HCT-116 cells): inactive | Viability EC50, RLM (p53RE-bla HCT-116 cells): inactive | Viability Efficacy, HLM (p53RE-bla HCT-116 cells): inactive | Viability Efficacy, No MS (p53RE-bla HCT-116 cells): inactive | Viability Efficacy, RLM (p53RE-bla HCT-116 cells): inactive | EC50 ([5]; HCT-116): 14.3 µM | Emax ([5]; HCT-116, read-out: efficacy): 37.4% | EC50 [6, 8]: 21.6 µM

Nc1ccc2c(O)cc(S(=O)(=O)O)cc2c1
p53 activation efficacy [1]: 61.5673 and 83.6027 | p53 activation efficacy [7]: 57.1256 and 31.0337 | EC50 ([7]; read-out: p53 activation EC50): 10.9 µM | p53 activation EC50 [4]: inactive | Viability EC50 (p53RE-bla HCT-116 cells): inactive | Viability efficacy (p53RE-bla HCT-116 cells): inactive | Emax [6, 12]: 27%

CCCCSP(=O)(SCCCC)SCCCC [Tribufos]
p53 activation EC50, cherry pick confirmation [1]: inactive | p53 activation EC50, primary screening [1]: inactive | p53 activation efficacy, cherry pick confirmation [1]: inactive | p53 activation efficacy, primary screening [1]: inactive | EC50 ([2]; Homo sapiens, HCT-116, 0.5 h): 0.74 µM | EC50 [3]: 1.32 µM | p53 activation EC50, cherry pick confirmation [4]: inactive | p53 activation efficacy, cherry pick confirmation [4]: inactive | Viability EC50, cherry pick confirmation (p53RE-bla HCT-116 cells): inactive | Viability EC50, primary screening (p53RE-bla HCT-116 cells): inactive | Viability efficacy, cherry pick confirmation (p53RE-bla HCT-116 cells): inactive | Viability efficacy, primary screening (p53RE-bla HCT-116 cells): inactive | EC50 ([5]; HCT-116): 2.16 µM | Emax ([5]; HCT-116, read-out: efficacy): 44.2% | EC50 ([5]; HCT-116, read-out: p53 activation EC50, cherry pick confirmation): 1.86 µM | Emax ([5]; HCT-116, read-out: p53 activation efficacy, cherry pick confirmation): 41.6% | Emax [5, 14]: 36% | Emax [6, 14]: 34.6%

CC(=O)NS(=O)(=O)c1ccc(N)cc1 [Sulfacetamide]
p53 activation EC50, No MS [1]: inactive | p53 activation Efficacy, No MS [1]: inactive | p53 activation EC50, RLM [7]: inactive | p53 activation Efficacy, RLM [7]: inactive | p53 activation EC50, HLM [4]: inactive | Viability EC50, HLM (p53RE-bla HCT-116 cells): inactive | Viability EC50, No MS (p53RE-bla HCT-116 cells): inactive | Viability EC50, RLM (p53RE-bla HCT-116 cells): inactive | Viability Efficacy, HLM (p53RE-bla HCT-116 cells): inactive | Viability Efficacy, No MS (p53RE-bla HCT-116 cells): inactive | Viability Efficacy, RLM (p53RE-bla HCT-116 cells): inactive | EC50 [6, 8]: 44.2 µM

Cl[C@H]1[C@H](Cl)[C@@H](Cl)[C@H](Cl)[C@@H](Cl)[C@@H]1Cl [beta-Hexachlorocyclohexane]
p53 activation EC50, No MS [1]: inactive | p53 activation Efficacy, No MS [1]: inactive | p53 activation EC50, RLM [7]: inactive | p53 activation Efficacy, RLM [7]: inactive | p53 activation EC50, HLM [4]: inactive | Viability EC50, HLM (p53RE-bla HCT-116 cells): inactive | Viability EC50, No MS (p53RE-bla HCT-116 cells): inactive | Viability EC50, RLM (p53RE-bla HCT-116 cells): inactive | Viability Efficacy, HLM (p53RE-bla HCT-116 cells): inactive | Viability Efficacy, No MS (p53RE-bla HCT-116 cells): inactive | Viability Efficacy, RLM (p53RE-bla HCT-116 cells): inactive | EC50 [6, 8]: 47.3 µM
